The results in this text go back to patent publication US20040077618A1, “Cycloalkylamides and their therapeutic applications” (priority 2002, published 2004).

The subject of assay [1] is CD-1 mice. Kind of assay: Maximal electroshock procedure (protection from tonic seizures). It counts as in vivo. The settings on record: Mus musculus, corneal electrodes 50 mA 0.4 second, oral pretreatment 30 minutes prior, PROBIT analysis, male CD-1 mice, read-out: ED50 (dose at which 50% of the mice were protected from tonic seizures). The protocol:
(§1) Adult, male, CD-1 mice (22-25 grams) were obtained from Charles River Laboratories (Portage, Mich.) and housed at Abbott Laboratories (Abbott Park) under standard lighting conditions of 12 hours on/12 hours off, with lights on at 6 a.m. Food and water were provided ad libitum and mice weighed 25-35 grams at the time of testing.
(§2) Compounds were prepared for oral administration by suspending them in a vehicle of 100 uL Tween® 80 per mL hydroxypropyl methylcellulose (2 mg/mL, Abbott Laboratories). Compound solutions were administered at a volume of 10 mL/kg, p.o.
The method used was similar to that of E. A. Swinyard, General principles: Experimental selection, quantification and evaluation of anti-convulsants, Anti-epileptic Drugs, Third Edition, R. Levey, et al., Editors. 1989, Raven Press Ltd: New York. Mice were pretreated orally with compounds of the present invention 30 minutes prior to electrical stimulation. Electrical stimulation consisted of pulsed electrical current (50 mA, 0.4 second duration, pulse width 0.5 msec, 60 pulses/sec) applied via corneal electrodes to induce seizure. The stimulation was delivered with an ECT Unit (Ugo Basile #7801). […] The percent protection from tonic seizures was calculated by dividing the number of protected mice by the total number in the group. […]
(In the maximal electroshock model the usual endpoint is tonic extension of the hind limbs.)

Assay [2] deals with CD-1 mice. Briefly: Subcutaneous pentylenetetrazole (PTZ) seizure procedure. The assay is classed as in vivo. To be noted: Mus musculus; PTZ 85 mg/kg subcutaneous; oral pretreatment 30 minutes prior; observed 15 minutes; linear regression; male CD-1 mice; read-out: ED50 (dose at which 50% of the mice were protected from tonic seizures). The method, then:
as §1, §2
The method used was similar to that of E. A. Swinyard, General principles: Experimental selection, quantification and evaluation of anti-convulsants, Anti-epileptic Drugs, Third Edition, R. Levey, et al., Editors. 1989, Raven Press Ltd: New York. During the experiment the mice were housed individually in clear polycarbonate cages for observation. […] Seizures were induced by the subcutaneous injection of pentylenetetrazole (PTZ, 85 mg/kg) just below the nape of the neck. […] A total of 20 mice were used in each group. The ED50 for the compounds were calculated using linear regression and represent the dose at which 50% of the mice were protected from tonic seizures.

One may read the ED50 as the midpoint of the dose-response relation.

For the molecule `CCCC(CCC)C(=O)O` [Valproate], the ED50 in assay [1] was found to be 1200 µmol/kg; in assay [2], 1800 µmol/kg.
